# In patent publication US20250230193A1, “CYCLIC COMPOUND HAVING SELECTIVE KRAS INHIBITORY EFFECT ON HRAS AND NRAS” (CHUGAI SEIYAKU KABUSHIKI KAISHA, priority 2022, published 2025):
# Experiments:
# [1] = target: GDP-bound HRAS wild-type protein (Homo sapiens, UniProt P01112); assay: Binding to HRAS by surface plasmon resonance (SPR), Single Cycle Kinetics; conditions: KD ratio HRAS/KRAS, SPR, GDP-bound wild-type proteins
# [2] = target: GDP-bound NRAS wild-type protein (Homo sapiens, UniProt P01111); assay: Binding to NRAS by surface plasmon resonance (SPR), Single Cycle Kinetics; conditions: KD ratio NRAS/KRAS, SPR, GDP-bound wild-type proteins
# Chain of GDP-bound NRAS wild-type protein (P01111 whole entry): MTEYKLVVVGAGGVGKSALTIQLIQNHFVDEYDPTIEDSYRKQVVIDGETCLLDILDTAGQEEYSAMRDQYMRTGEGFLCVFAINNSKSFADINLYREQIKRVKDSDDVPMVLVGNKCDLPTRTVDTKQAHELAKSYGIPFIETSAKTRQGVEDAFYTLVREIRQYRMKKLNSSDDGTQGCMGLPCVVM
# Chain of GDP-bound HRAS wild-type protein (P01112 whole entry): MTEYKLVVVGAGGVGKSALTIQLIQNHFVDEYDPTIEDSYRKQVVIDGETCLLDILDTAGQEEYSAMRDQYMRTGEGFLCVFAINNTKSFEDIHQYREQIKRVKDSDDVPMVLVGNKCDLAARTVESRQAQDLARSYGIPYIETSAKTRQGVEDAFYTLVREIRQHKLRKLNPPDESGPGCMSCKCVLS
Compound,HRAS/KRAS (ratio of KD value with respect to GDP-bound HRAS wild-type protein to KD value with respect to KRAS) [1],NRAS/KRAS (ratio of KD value with respect to GDP-bound NRAS wild-type protein to KD value with respect to KRAS) [2]
"CCO[C@@H]1C[C@H]2C(=O)NC3(CCC3)C(=O)N(C)[C@@H](C(CC)CC)C(=O)N(C)[C@H](C(=O)N3CCCC3)CC(=O)N(C)[C@H]3CCCC/C=C/c4ccc(cc4)C[C@@H](C(=O)N(C)CC(=O)N[C@@H](CCc4ccc(Cl)c(Cl)c4)C(=O)N2C1)N1CC/C=C\C[C@@H](C1=O)N(C)C(=O)CN(C)C(=O)[C@H]([C@@H](C)CC)NC3=O [PP3047, (1S,7S,11R,13S,19S,22S,26S,29S,35S,37Z,47E)-7-[2-(3,4-dichlorophenyl)ethyl]-11-ethoxy-19-(1-ethylpropyl)-3,18,21,25,31,34-hexamethyl-29-[(1S)-1-methylpropyl]-22-(pyrrolidine-1-carbonyl)spiro[3,6,9,15,18,21,25,28,31,34,41-undecazapentacyclo[24.15.11.2^43,46.1^35,41.0^9,13]pentapentaconta-37,43(54),44,46(53),47-pentaene-16,1′-cyclobutane]-2,5,8,14,17,20,24,27,30,33,55-undecone]",A (a compound having 10 or more and less than 20 is denoted as A),AA (a compound having 20 or more is denoted as AA)
CCO[C@@H]1C[C@H]2C(=O)NC3(CC(C)(C)C3)C(=O)N(C)[C@@H](C(CC)CC)C(=O)N(C)[C@H](C(=O)N(C)C)CC(=O)N(C)[C@H]3CCCCC/C=C/c4ccc(cc4)C[C@@H](C(=O)N(C)CC(=O)N[C@@H](CCc4cc(F)c(C(F)(F)F)c(F)c4)C(=O)N2C1)N1CC/C=C\C[C@@H](C1=O)N(C)C(=O)CN(C)C(=O)[C@H]([C@@H](C)CC)NC3=O [PP3048],A (a compound having 10 or more and less than 20 is denoted as A),A (a compound having 10 or more and less than 20 is denoted as A)
CCO[C@@H]1C[C@H]2C(=O)NC3(CCC3)C(=O)N(C)[C@@H](C3CCCC3)C(=O)N(C)[C@H](C(=O)N3CCCC3)CC(=O)N(C)[C@H]3CCCCC/C=C/c4ccc(cc4)C[C@@H](C(=O)N(C)CC(=O)N[C@@H](CCc4ccc(Cl)c(Cl)c4)C(=O)N2C1)N1CC/C=C\C[C@@H](C1=O)N(C)C(=O)CN(C)C(=O)[C@H]([C@@H](C)CC)NC3=O [PP3049],A (a compound having 10 or more and less than 20 is denoted as A),AA (a compound having 20 or more is denoted as AA)
CCO[C@@H]1C[C@H]2C(=O)NC3(CC(C)(C)C3)C(=O)N(C)[C@@H](C(CC)CC)C(=O)N(C)[C@H](C(=O)N(C)C)CC(=O)N(C)[C@H]3CCCCC/C=C/c4ccc(cc4)C[C@@H](C(=O)N(C)CC(=O)N[C@@H](CCc4ccc(Cl)c(Cl)c4)C(=O)N2C1)N1CC/C=C\C[C@@H](C1=O)N(C)C(=O)CN(C)C(=O)[C@H]([C@@H](C)CC)NC3=O [PP3050],A (a compound having 10 or more and less than 20 is denoted as A),AA (a compound having 20 or more is denoted as AA)
CCO[C@@H]1C[C@H]2C(=O)NC3(CCC3)C(=O)N(C)[C@@H](C(CC)CC)C(=O)N(C)[C@H](C(=O)N3CCCCC3)CC(=O)N(C)[C@H]3CCCCC/C=C/c4ccc(cc4)C[C@@H](C(=O)N(C)CC(=O)N[C@@H](CCc4ccc(Cl)c(Cl)c4)C(=O)N2C1)N1CC/C=C\C[C@@H](C1=O)N(C)C(=O)CN(C)C(=O)[C@H]([C@@H](C)CC)NC3=O [PP3051],A (a compound having 10 or more and less than 20 is denoted as A),AA (a compound having 20 or more is denoted as AA)
